The record followed here is patent US11542316B2, “S-Arrestin peptides and therapeutic uses thereof” (APITOPE INTERNATIONAL NV, priority 2017, dated 2023).

Ends that are not written are not given here.

In assay [1] the test system is T cell line with MGAR APC. Description: Antigen Processing Independent Presentation System (APIPS) assay, fresh or fixed MGAR APC. Type of assay: cell-based, DR2 mice. The settings on record: DR2 T cell line, IFN-γ, 24 h. As to the method: FIG. 4: Identification of apitopes within HIP-9FL. DR2 mice were immunized with HIP-9FL-KKK and a T cell line was established. Ten days after immunization the LN and spleens were harvested and cultured with different concentrations of peptide (0.1-1-2.5 and 5 μg/ml); 2×10^6 cells/ml APCs+1×10^6 cells/ml CD4 T cells per well. At day 7 the cells were re-stimulated with the same concentrations of peptide. On day 21 an APIPS test was done using commercial APC (MGAR). After 24 h, antigen-induced T cell activation was measured by IFN-γ ELISA and shown as OD values. The graph represents the mean of duplicate measurements±SEM. LN, lymph nodes; APC, Antigen presenting cell; APIPS, Antigen Processing Independent Presentation System.
Antigen-specific clones or TCL were tested for their reactivity to the peptides, presented by fixed or not fixed (fresh) cells (VAVY or MGAR) (=APCs). 5×10^4 cells from the individual clones were cultured with 10 μg/ml peptide and 5×10^4 fixed or fresh APCs. In the case of TCL, 5×10^4 cells were cultured with 10 μg/ml and 25 μg/ml peptide and 2.5×10^4 fixed or fresh APCs. To fixate APCs, cells were incubated with 0.5% paraformaldehyde (Merck, Darmstadt, Germany) (pH7) for 5 min at room temperature (RT). The fixation reaction was stopped by adding 0.4M glycine (Sigma-Aldrich) and washing the cells in RPMI-10% FCS. Additionally, reactivity towards human SAg protein (QBiologicals, Eurofins Amatsigroup, Ghent, Belgium) was measured to identify cryptic epitopes. After 24 h or 48 h, antigen-induced IFN-γ or IL-2 production (respectively) was measured by ELISA (R&D Systems, Abingdon, UK).
DR3tg or DR2tg mice were immunised subcutaneously in the base of the tail with 50 μg peptide emulsified in CFA (peptide/CFA). Ten days after immunisation, draining lymph nodes (LN) and spleens were harvested. […] At day 7, TCL cells were counted and cultured with fresh APC, peptides and IL-2, all at the same concentrations as above. […]

Assay [2] deals with T1, MHC II molecules present on dendritic cells (DC) (Homo sapiens, UniProt P01903+P01911).
T1 construct: from tissue; host or cells: CD11c+ dendritic cells from spleens of DR2tg mice (DRA*0101 and DRB1*1501 cDNAs under a mouse MHCII promoter, no mouse MHC class II)
T1 sequence (P01903 26-254): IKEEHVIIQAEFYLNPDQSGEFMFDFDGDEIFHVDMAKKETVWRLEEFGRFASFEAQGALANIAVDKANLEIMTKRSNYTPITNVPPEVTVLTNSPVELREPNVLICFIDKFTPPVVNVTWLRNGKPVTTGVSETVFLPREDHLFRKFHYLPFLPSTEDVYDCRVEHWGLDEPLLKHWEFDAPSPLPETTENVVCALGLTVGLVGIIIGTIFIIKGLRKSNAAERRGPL
T1 sequence (P01911 30-266): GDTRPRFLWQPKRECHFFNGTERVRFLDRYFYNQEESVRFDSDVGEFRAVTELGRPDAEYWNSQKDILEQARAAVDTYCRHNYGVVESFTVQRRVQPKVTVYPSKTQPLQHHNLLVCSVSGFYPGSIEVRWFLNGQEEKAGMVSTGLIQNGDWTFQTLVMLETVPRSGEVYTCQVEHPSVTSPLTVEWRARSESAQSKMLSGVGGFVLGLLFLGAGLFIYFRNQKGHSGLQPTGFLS
Description: In vivo presentation experiment, DR2tg mice. The settings on record: 100 μg peptide s.c., CD11c+ cells harvested after 2 hours, co-culture 48 hours. From the text: FIG. 14: In vivo presentation protocol. Mice are immunized with peptide/CFA and a T cell line is established. For this, ten days after immunization the LN and spleens are harvested and cultured with different concentrations of peptide; 2×10^6 cells/ml APC+1×10^6 cells/ml CD4^+ cells per well. At day 7 the cells are re-stimulated with fresh APC and the same concentrations of peptide. After 14 to 21 days, CD4^+ cells are isolated from these cultures by magnetic bead isolation. These CD4^+ cells are co-cultured with CD11c^+ (dendritic) cells isolated by magnetic bead isolation from spleens of mice s.c. injected with peptide 2 hours before. Control mice receive a s.c. injection of PBS. After 48 hours, supernatant is collected and cytokine response (IFN-γ) is measured. […]
FIG. 17: In vivo presentation of HIP-9FL nested peptides in DR2 mice. […] After 48 hours, supernatant was collected and IFN-γ production was measured by ELISA. […]
DR3tg or DR2tg mice were injected with 100 μg of peptide in 100 μl PBS subcutaneously (s.c.) in the flank. […] After 48 hours, supernatant of these co-cultures was collected and CD4^+ T cell activation was analysed by IFN-γ ELISA (R&D Systems, Abingdon, UK). In a parallel experiment, CD4^+ T cell responses towards peptide added in vitro were assessed to make sure the T cells recognize the peptides presented by the CD11c^+ cells.

For “KKKAFVEQVANVVLKKK-NH2 [HIP-9K1-KKK, KKKAFVEQVANVVLKKK]”, the “behaves as apitope (response to peptide presented by fresh or fixed APC)” value in assay [1] is “behave as apitopes”. In addition, in assay [2], the “picked up and presented by MHC II on dendritic cells to peptide-specific T cells (IFN-γ production)” value was “presented by DC to T cells”.
